Measurements taken from ChEMBL document CHEMBL1201862, “PubChem BioAssay data set” (2004).
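Where inhibition never reached the appropriate level, the endpoint shown equals the highest concentration tested. Otherwise, values were interpolated linearly from a five-concentration, 48-hour dose response in 96-well plates. GI50 is the concentration that inhibits growth by half.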 Calls of active or inactive are those of the source. Cut-off read from the data, not from the text of the source: active = GI50 up to about 1.1 µM and inactive = higher. Where a SMILES comes first, the peptide text is derived from it. [ ]: non-standard residue; d: D form. The star is where a group is joined. Chg = N[CH](C(=O)O)C1CCCCC1; Cbz = O=C(OCc1ccccc1)*; OBn = c1ccc(CO*)cc1

Legend:
Assay in all cases: NCI tumour cell line growth inhibition, 48 h
786-0 = test system: 786-0
A498 = test system: A498
A549 = test system: A549
CCRF-CEM = test system: CCRF-CEM
COLO 205 = test system: COLO 205
HCT-116 = test system: HCT-116
HOP-62 = test system: HOP-62
IGROV-1 = test system: IGROV-1
MDA-N = test system: MDA-N
NCI/ADR-RES = test system: NCI/ADR-RES
OVCAR-8 = test system: OVCAR-8
SF-539 = test system: SF-539
SK-MEL-28 = test system: SK-MEL-28
SK-MEL-5 = test system: SK-MEL-5
SNB-19 = test system: SNB-19
TK-10 = test system: TK-10
U-251 = test system: U-251
UACC-62 = test system: UACC-62
HT-29 = test system: HT-29
OVCAR-3 = test system: OVCAR-3

| SMILES | GI50 (786-0) | GI50 (A498) | GI50 (A549) | GI50 (CCRF-CEM) | GI50 (COLO 205) | GI50 (HCT-116) | GI50 (HOP-62) | GI50 (IGROV-1) | GI50 (MDA-N) | GI50 (NCI/ADR-RES) | GI50 (OVCAR-8) | GI50 (SF-539) | GI50 (SK-MEL-28) | GI50 (SK-MEL-5) | GI50 (SNB-19) | GI50 (TK-10) | GI50 (U-251) | GI50 (UACC-62) | GI50 (HT-29) | GI50 (OVCAR-3) |
| --- | --- | --- | --- | --- | --- | --- | --- | --- | --- | --- | --- | --- | --- | --- | --- | --- | --- | --- | --- | --- |
| CC1(C)CCC(C)(C)C1C(=O)NC(O)C(=O)O (stereo unspecified) | > 100 µM (inactive) | > 100 µM (inactive) | > 100 µM (inactive) | > 100 µM (inactive) | > 100 µM (inactive) | > 100 µM (inactive) | > 100 µM (inactive) | > 100 µM (inactive) | > 100 µM (inactive) | > 100 µM (inactive) | > 100 µM (inactive) | > 100 µM (inactive) | > 100 µM (inactive) | > 100 µM (inactive) | > 100 µM (inactive) | > 100 µM (inactive) | > 100 µM (inactive) | > 100 µM (inactive) | – | – |
| Cc1cc2c3c(ccc4[nH]cc(c43)CN2c2ccc(NS(C)(=O)=O)cc2)n1 | 11.4 µM (inactive) | 41.4 µM (inactive) | 25.6 µM (inactive) | 8.41 µM (inactive) | > 100 µM (inactive) | 11.4 µM (inactive) | 19.6 µM (inactive) | 48.4 µM (inactive) | > 100 µM (inactive) | > 100 µM (inactive) | 29 µM (inactive) | – | > 100 µM (inactive) | > 100 µM (inactive) | 1.83 µM (inactive) | 26.2 µM (inactive) | 22.5 µM (inactive) | > 100 µM (inactive) | > 100 µM (inactive) | 21.2 µM (inactive) |
| CC1(C)OCC2OC3([C@@H]4OC(C)(C)O[C@H]4CO)OC(C)(C)OC3C2O1 (stereo partly specified) | > 100 µM (inactive) | > 100 µM (inactive) | > 100 µM (inactive) | > 100 µM (inactive) | > 100 µM (inactive) | > 100 µM (inactive) | > 100 µM (inactive) | > 100 µM (inactive) | > 100 µM (inactive) | > 100 µM (inactive) | > 100 µM (inactive) | > 100 µM (inactive) | > 100 µM (inactive) | > 100 µM (inactive) | > 100 µM (inactive) | – | > 100 µM (inactive) | > 100 µM (inactive) | – | > 100 µM (inactive) |
| COC(=O)C(NC(=O)C(CC(=O)OCc1ccccc1)NC(=O)OCc1ccccc1)C1CCCCC1 (stereo unspecified) (Cbz-Asp(OBn)-[Chg]-OMe; configuration not given here) | > 100 µM (inactive) | – | > 100 µM (inactive) | > 100 µM (inactive) | > 100 µM (inactive) | > 100 µM (inactive) | > 100 µM (inactive) | > 100 µM (inactive) | > 100 µM (inactive) | > 100 µM (inactive) | > 100 µM (inactive) | 59.7 µM (inactive) | > 100 µM (inactive) | 0.195 µM (active) | > 100 µM (inactive) | > 100 µM (inactive) | > 100 µM (inactive) | > 100 µM (inactive) | 78.3 µM (inactive) | > 100 µM (inactive) |
| CCOC(=O)c1cnc(-n2[nH]c3c(c2=O)CCCC3)[nH]c1=O | 60 µM (inactive) | 62.8 µM (inactive) | 63.1 µM (inactive) | 28.8 µM (inactive) | 26.2 µM (inactive) | 36.4 µM (inactive) | – | > 100 µM (inactive) | 86.1 µM (inactive) | 34.8 µM (inactive) | 37.5 µM (inactive) | 48.1 µM (inactive) | 20.9 µM (inactive) | 75.2 µM (inactive) | > 100 µM (inactive) | > 100 µM (inactive) | 39.7 µM (inactive) | 29.6 µM (inactive) | 40.4 µM (inactive) | – |
| CCn1c(CCl)nc2c1C(=O)c1ccccc1C2=O | 3.04 µM (inactive) | – | 3.4 µM (inactive) | 0.171 µM (active) | – | 2.13 µM (inactive) | 2.42 µM (inactive) | 1.7 µM (inactive) | 2.17 µM (inactive) | 2.48 µM (inactive) | 1.58 µM (inactive) | 2.23 µM (inactive) | 1.76 µM (inactive) | 0.42 µM (active) | 1.87 µM (inactive) | 2.51 µM (inactive) | 1.71 µM (inactive) | 1.28 µM (inactive) | 1.78 µM (inactive) | 1.69 µM (inactive) |
| CN1COCc2cc3cc4c(cc3nc21)OCCO4 | > 100 µM (inactive) | > 100 µM (inactive) | > 100 µM (inactive) | 81.7 µM (inactive) | > 100 µM (inactive) | 93.3 µM (inactive) | > 100 µM (inactive) | 55 µM (inactive) | > 100 µM (inactive) | > 100 µM (inactive) | > 100 µM (inactive) | > 100 µM (inactive) | – | 39.5 µM (inactive) | > 100 µM (inactive) | > 100 µM (inactive) | > 100 µM (inactive) | > 100 µM (inactive) | > 100 µM (inactive) | – |
| CC(C)c1ccc2nc3ccc(C(=O)NCCN4CCN(c5ccccc5)CC4)cn3c(=O)c2c1 | 3.21 µM (inactive) | 29.9 µM (inactive) | > 100 µM (inactive) | 2.24 µM (inactive) | 3.33 µM (inactive) | 5.66 µM (inactive) | 6.31 µM (inactive) | > 100 µM (inactive) | 4.6 µM (inactive) | 3.57 µM (inactive) | 4.33 µM (inactive) | – | 2.82 µM (inactive) | 2.58 µM (inactive) | > 100 µM (inactive) | 3.56 µM (inactive) | > 100 µM (inactive) | 3.87 µM (inactive) | 4.06 µM (inactive) | > 100 µM (inactive) |
| CSc1c(C(=O)Nc2ccccc2)c(N)nn1-c1ccccc1 | > 100 µM (inactive) | > 100 µM (inactive) | > 100 µM (inactive) | > 100 µM (inactive) | > 100 µM (inactive) | > 100 µM (inactive) | – | – | > 100 µM (inactive) | > 100 µM (inactive) | > 100 µM (inactive) | > 100 µM (inactive) | > 100 µM (inactive) | > 100 µM (inactive) | > 100 µM (inactive) | > 100 µM (inactive) | > 100 µM (inactive) | > 100 µM (inactive) | > 100 µM (inactive) | > 100 µM (inactive) |
| CC(C)(C)N/N=C(/Cc1nc2c3c(ccc2nc1O)C(=O)c1ccccc1C3=O)C(=O)NC1=C(Cl)C(=O)c2ccccc2C1=O | 33.2 µM (inactive) | 88.9 µM (inactive) | 18.3 µM (inactive) | 14.4 µM (inactive) | 24 µM (inactive) | 13.9 µM (inactive) | – | 5.14 µM (inactive) | 15.1 µM (inactive) | 5.77 µM (inactive) | 10 µM (inactive) | 21 µM (inactive) | > 100 µM (inactive) | 11.1 µM (inactive) | 72.8 µM (inactive) | – | 47.8 µM (inactive) | 21.2 µM (inactive) | 13.6 µM (inactive) | 13.9 µM (inactive) |
| c1ccc2c(C3CCN(CCN4CCOCC4)C3)c[nH]c2c1 (stereo unspecified) | > 100 µM (inactive) | > 100 µM (inactive) | > 100 µM (inactive) | > 100 µM (inactive) | – | > 100 µM (inactive) | > 100 µM (inactive) | > 100 µM (inactive) | > 100 µM (inactive) | > 100 µM (inactive) | > 100 µM (inactive) | – | > 100 µM (inactive) | > 100 µM (inactive) | > 100 µM (inactive) | > 100 µM (inactive) | > 100 µM (inactive) | > 100 µM (inactive) | > 100 µM (inactive) | > 100 µM (inactive) |
| O=c1c2ccccc2nc(-c2cc3c(cc2Cl)Sc2nccn2S3(=O)=O)n1-c1ccccc1 | 30.1 µM (inactive) | – | > 100 µM (inactive) | – | > 100 µM (inactive) | 14.2 µM (inactive) | 18.2 µM (inactive) | 42.6 µM (inactive) | 15.6 µM (inactive) | 19.1 µM (inactive) | 12.3 µM (inactive) | 20.4 µM (inactive) | 21.4 µM (inactive) | 45.3 µM (inactive) | 40.8 µM (inactive) | 21.5 µM (inactive) | 16.8 µM (inactive) | 26.4 µM (inactive) | 40.5 µM (inactive) | 15.9 µM (inactive) |
| CC(C)C(C/C=C1\CC(CO)(COC(=O)c2ccccc2)OC1=O)C(C)C (stereo unspecified) | 14.8 µM (inactive) | 21.3 µM (inactive) | 15.8 µM (inactive) | 12.1 µM (inactive) | 11.5 µM (inactive) | 17.2 µM (inactive) | 13.7 µM (inactive) | 20.7 µM (inactive) | 21.2 µM (inactive) | 20.7 µM (inactive) | 19.2 µM (inactive) | – | 16.3 µM (inactive) | 10.4 µM (inactive) | 17.9 µM (inactive) | 19 µM (inactive) | 19.1 µM (inactive) | > 100 µM (inactive) | 19.1 µM (inactive) | 21.2 µM (inactive) |
| CCOC(=O)Cn1c(=O)c2nc(SC)sc2n(-c2ccccc2)c1=S | 12.1 µM (inactive) | – | 82.2 µM (inactive) | > 100 µM (inactive) | 42.1 µM (inactive) | 27.5 µM (inactive) | 19.9 µM (inactive) | 3.05 µM (inactive) | 40.8 µM (inactive) | 36.7 µM (inactive) | 43.9 µM (inactive) | 15.6 µM (inactive) | 96.6 µM (inactive) | > 100 µM (inactive) | 13.4 µM (inactive) | 30.3 µM (inactive) | 13.4 µM (inactive) | < 0.01 µM (active) | > 100 µM (inactive) | 26.6 µM (inactive) |
| COc1cc(C)cc(C(=O)OCc2ccccc2)c1C1=C(Cl)C(=O)C(Cl)=CC1=O | > 5.71 µM (inactive) | – | > 10 µM (inactive) | 2.08 µM (inactive) | > 6.14 µM (inactive) | > 10 µM (inactive) | > 10 µM (inactive) | > 10 µM (inactive) | > 10 µM (inactive) | > 10 µM (inactive) | > 10 µM (inactive) | > 10 µM (inactive) | > 10 µM (inactive) | > 10 µM (inactive) | > 10 µM (inactive) | > 10 µM (inactive) | > 10 µM (inactive) | > 10 µM (inactive) | > 10 µM (inactive) | 4.6 µM (inactive) |
